Data published in patent publication US8227501B2, “1,6-dihydro-2H-3-oxa-6-aza-as-indacene compounds” (Ferrer Internacional, S.A., priority 2008, dated 2012).

Target: T1, recombinant human-MT1 receptor (Homo sapiens, UniProt P48039)
T1 construct: expressed in transfected cells; host or cells: unnamed cell line stably overexpressing human MT1, co-expressing mitochondrial apoaequorin and Gα16
Assay: In vitro MT1 screening, agonist activity (AequoScreen aequorin luminescence)
Format: cell-based
Settings: percentage of activity relative to the reference agonist at the EC100 concentration; for activation at 0.001 µM: read-out: Agonism percentages of MT1, 1 nM; for activation at 0.1 µM: read-out: Agonism percentages of MT1, 100 nM
From the text: To proceed with compound screening over MT1 receptor, a cell line characterised by a stable overexpression of recombinant human-MT1 receptor was used. This line co-expresses mitochondrial apoaequorin and subunit Gα16.
Subunit Gα16 belongs to […], in which intracelular signal transduction is produced via phospholipase (PLC). Activation of PLC produces an increment of inositol-triphosphate levels and intracellular calcium levels. This increment in calcium levels is, therefore, independent and full compatible with the signal transduction of MT1 receptor.
After binding to calcium, aequorin carries out the oxidation of colenterazine to colenteramide, a luminescent reaction.
Assay protocol for agonist screening consists in an overnight incubation of cells and colenterazine, being performed by an AequoScreen™ system instrument, PerkinElmer, USA. After that this mixture was injected over a plate that contains the solution of the compounds to screen and luminescence was immediately read. Only in case of antagonism screening, after 15-30 min of the first injection the reference agonist was added in the same well, and then luminescence was measured.
Agonist activity was calculated as percentage of activity relative to the reference agonist at the EC100 concentration. Activity of antagonists was expressed as the inhibition percentage over the activity of reference agonist at its EC80, concentration.

T1 sequence (P48039 whole entry): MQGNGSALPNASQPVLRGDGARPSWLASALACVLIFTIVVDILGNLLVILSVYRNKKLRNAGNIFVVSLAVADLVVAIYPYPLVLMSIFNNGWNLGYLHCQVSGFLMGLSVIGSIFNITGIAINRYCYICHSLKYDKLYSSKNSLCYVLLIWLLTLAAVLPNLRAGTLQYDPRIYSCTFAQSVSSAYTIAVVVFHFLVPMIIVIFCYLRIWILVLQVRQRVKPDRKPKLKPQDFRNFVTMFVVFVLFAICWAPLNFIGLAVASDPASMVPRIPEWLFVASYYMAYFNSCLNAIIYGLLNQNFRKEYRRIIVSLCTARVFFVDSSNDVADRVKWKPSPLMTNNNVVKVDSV

Compound	activation at 0.001 µM (1 nM compound) [%]	activation at 0.1 µM (100 nM compound) [%]	Agonism percentages of MT1, 1 nM (1 nM compound) [%]	Agonism percentages of MT1, 100 nM (100 nM compound) [%]
CC(=O)NCCc1c[nH]c2cc(F)c3c(c12)CCO3 [Compound 13, N-[2-(4-Fluoro-1,6-dihydro-2H-3-oxa-6-aza-as-indacen-8-yl)-ethyl]-acetamide]	37.7	92.9		
CCC(=O)NCCc1c[nH]c2cc(F)c3c(c12)CCO3 [Compound 14, N-[2-(4-Fluoro-1,6-dihydro-2H-3-oxa-6-aza-as-indacen-8-yl)-ethyl]-propionamide]	55.1	102		
CCCC(=O)NCCc1c[nH]c2cc(F)c3c(c12)CCO3 [Compound 15, N-[2-(4-Fluoro-1,6-dihydro-2H-3-oxa-6-aza-as-indacen-8-yl)-ethyl]-butiramide]			43.0	108.2
CC(C)C(=O)NCCc1c[nH]c2cc(F)c3c(c12)CCO3 [Compound 16, N-[2-(4-Fluoro-1,6-dihydro-2H-3-oxa-6-aza-as-indacen-8-yl)-ethyl]-isobutyramide]	23	82.3		
O=C(NCCc1c[nH]c2cc(F)c3c(c12)CCO3)C1CC1 [Compound 17, Cyclopropanecarboxylic acid [2-(4-fluoro-1,6-dihydro-2H-3-oxa-6-aza-as-indacen-8-yl)-ethyl]-amide]	43.8	93.2		
O=C(NCCc1c[nH]c2cc(F)c3c(c12)CCO3)C(F)(F)F [Compound 18, 2,2,2-Trifluoro-N-[2-(4-fluoro-1,6-dihydro-2H-3-oxa-6-aza-as-indacen-8-yl)-ethyl]-acetamide]	59.8	105		
CCCC(=O)NCC(C)c1c[nH]c2cc(F)c3c(c12)CC(C)O3 (centres unmarked) [Compound 19, N-[2-(4-Fluoro-2-methyl-1,6-dihydro-2H-3-oxa-6-aza-as-indacen-8-yl)-propyl]-butyramide]	27.8	96.8		
CCC(=O)NCC(C)c1c[nH]c2cc(F)c3c(c12)CC(C)O3 (centres unmarked) [Compound 20, N-[2-(4-Fluoro-2-methyl-1,6-dihydro-2H-3-oxa-6-aza-as-indacen-8-yl)-propyl]-propionamide]	30.2	94.3		
CC(=O)NCC(C)c1c[nH]c2cc(F)c3c(c12)CC(C)O3 (centres unmarked) [Compound 21, N-[2-(4-Fluoro-2-methyl-1,6-dihydro-2H-3-oxa-6-aza-as-indacen-8-yl)-propyl]-acetamide]	43.2	92.6		
CC(=O)NCCc1c[nH]c2cc(F)c3c(c12)CC(C)O3 (centres unmarked) [Compound 22, N-[2-(4-Fluoro-2-methyl-1,6-dihydro-2H-3-oxa-6-aza-as-indacen-8-yl)-ethyl]-acetamide]	50.5	96.8		
CCC(=O)NCCc1c[nH]c2cc(F)c3c(c12)CC(C)O3 (centres unmarked) [Compound 23, N-[2-(4-Fluoro-2-methyl-1,6-dihydro-2H-3-oxa-6-aza-as-indacen-8-yl)-ethyl]-propionamide]	39.1	99.7		
CCCC(=O)NCCc1c[nH]c2cc(F)c3c(c12)CC(C)O3 (centres unmarked) [Compound 24, N-[2-(4-Fluoro-2-methyl-1,6-dihydro-2H-3-oxa-6-aza-as-indacen-8-yl)-ethyl]-butyramide]	42.1	99.8		
CCCCC(=O)NCCc1c[nH]c2cc(F)c3c(c12)CC(C)O3 (centres unmarked) [Compound 25, Pentanoic acid [2-(4-fluoro-2-methyl-1,6-dihydro-2H-3-oxa-6-aza-as-indacen-8-yl)-ethyl]-amide]	31.9	98		
CC1Cc2c(c(F)cc3[nH]cc(CCNC(=O)C(C)C)c23)O1 (centres unmarked) [Compound 26, N-[2-(4-Fluoro-2-methyl-1,6-dihydro-2H-3-oxa-6-aza-as-indacen-8-yl)-ethyl]-isobutyramide]	25.7	84.8		
CC1Cc2c(c(F)cc3[nH]cc(CCNC(=O)C4CC4)c23)O1 (centres unmarked) [Compound 27, Cyclopropanecarboxylic acid [2-(4-fluoro-2-methyl-1,6-dihydro-2H-3-oxa-6-aza-as-indacen-8-yl)-ethyl]-amide]	33.8	91.1		
CC1Cc2c(c(F)cc3[nH]cc(CCNC(=O)C(F)(F)F)c23)O1 (centres unmarked) [Compound 28, 2,2,2-Trifluoro-N-[2-(4-fluoro-2-methyl-1,6-dihydro-2H-3-oxa-6-aza-as-indacen-8-yl)-ethyl]-acetamide]	36.1	97.2		

Compound	activation at 0.001 µM (1 nM compound) [%]	activation at 0.1 µM (100 nM compound) [%]	Agonism percentages of MT1, 1 nM (1 nM compound) [%]	Agonism percentages of MT1, 100 nM (100 nM compound) [%]
COC(=O)NCCc1c[nH]c2cc(F)c3c(c12)CC(C)O3 (centres unmarked) [Compound 29, [2-(4-Fluoro-2-methyl-1,6-dihydro-2H-3-oxa-6-aza-as-indacen-8-yl)-ethyl]-carbamic acid methyl ester]	17.4	77.3		
CCOC(=O)NCCc1c[nH]c2cc(F)c3c(c12)CC(C)O3 (centres unmarked) [Compound 30, [2-(4-Fluoro-2-methyl-1,6-dihydro-2H-3-oxa-6-aza-as-indacen-8-yl)-ethyl]-carbamic acid ethyl ester]	7.1	68.1		
CC(C)CC(=O)NCCc1c[nH]c2cc(F)c3c(c12)CC(C)O3 (centres unmarked) [Compound 31, N-[2-(4-Fluoro-2-methyl-1,6-dihydro-2H-3-oxa-6-aza-as-indacen-8-yl)-ethyl]-3-methyl-butyramide]	22.3	90.4		
CC1Cc2c(c(F)cc3[nH]cc(CCNC(=O)C(C)F)c23)O1 (centres unmarked) [Compound 32, 2-Fluoro-N-[2-(4-fluoro-2-methyl-1,6-dihydro-2H-3-oxa-6-aza-as-indacen-8-yl)-ethyl]-propionamide]	38.6	93.1		
CCNC(=O)NCCc1c[nH]c2cc(F)c3c(c12)CC(C)O3 (centres unmarked) [Compound 33, 1-Ethyl-3-[2-(4-fluoro-2-methyl-1,6-dihydro-2H-3-oxa-6-aza-as-indacen-8-yl)-ethyl]-urea]	26.6	87.5		
CC1Cc2c(c(F)cc3[nH]cc(C(C)CNC(=O)C(C)C)c23)O1 (centres unmarked) [Compound 34, N-[2-(4-Fluoro-2-methyl-1,6-dihydro-2H-3-oxa-6-aza-as-indacen-8-yl)-propyl]-isobutyramide]	18.4	95.8		
CC1Cc2c(c(F)cc3[nH]cc(C(C)CNC(=O)C4CC4)c23)O1 (centres unmarked) [Compound 35, Cyclopropanecarboxylic acid [2-(4-fluoro-2-methyl-1,6-dihydro-2H-3-oxa-6-aza-as-indacen-8-yl)-propyl]-amide]	30.5	94		
CC(C)CC(=O)NCC(C)c1c[nH]c2cc(F)c3c(c12)CC(C)O3 (centres unmarked) [Compound 36, N-[2-(4-Fluoro-2-methyl-1,6-dihydro-2H-3-oxa-6-aza-as-indacen-8-yl)-propyl]-3-methyl-butyramide]	20.9	89.7		
CC1Cc2c(c(F)cc3[nH]cc(C(C)CNC(=O)C(C)(C)C)c23)O1 (centres unmarked) [Compound 37, N-[2-(4-Fluoro-2-methyl-1,6-dihydro-2H-3-oxa-6-aza-as-indacen-8-yl)-propyl]-2,2-dimethyl-propionamide]	6.6	52.8		
CC1Cc2c(c(F)cc3[nH]cc(C(C)CNC(=O)C(F)(F)F)c23)O1 (centres unmarked) [Compound 38, 2,2,2-Trifluoro-N-[2-(4-fluoro-2-methyl-1,6-dihydro-2H-3-oxa-6-aza-as-indacen-8-yl)-propyl]-acetamide]	36.9	101		
CCCCC(=O)NCC(C)c1c[nH]c2cc(F)c3c(c12)CC(C)O3 (centres unmarked) [Compound 39, Pentanoic acid [2-(4-fluoro-2-methyl-1,6-dihydro-2H-3-oxa-6-aza-as-indacen-8-yl)-propyl]-amide]	24.6	91.4		
COC(=O)NCC(C)c1c[nH]c2cc(F)c3c(c12)CC(C)O3 (centres unmarked) [Compound 40, [2-(4-Fluoro-2-methyl-1,6-dihydro-2H-3-oxa-6-aza-as-indacen-8-yl)-propyl]-carbamic acid methyl ester]	24	95.2		
CCOC(=O)NCC(C)c1c[nH]c2cc(F)c3c(c12)CC(C)O3 (centres unmarked) [Compound 41, [2-(4-Fluoro-2-methyl-1,6-dihydro-2H-3-oxa-6-aza-as-indacen-8-yl)-propyl]-carbamic acid ethyl ester]	13.1	78.9		
CCNC(=O)NCC(C)c1c[nH]c2cc(F)c3c(c12)CC(C)O3 (centres unmarked) [Compound 42, 1-Ethyl-3-[2-(4-fluoro-2-methyl-1,6-dihydro-2H-3-oxa-6-aza-as-indacen-8-yl)-propyl]-urea]	19.7	87.8		
CC1Cc2c(c(F)cc3[nH]cc(C(C)CNC(=O)C(C)F)c23)O1 (centres unmarked) [Compound 43, 2-Fluoro-N-[2-(4-fluoro-2-methyl-1,6-dihydro-2H-3-oxa-6-aza-as-indacen-8-yl)-propyl]-propionamide]	30.6	92.8		
